Data reported in patent publication US6245817A, “NPY5 receptor antagonists and methods for using same” (Bayer Corporation, priority 1999, dated 2001).
pIC50: −log10 of the molar value. Where a name gives a salt, the structure may show the parent alone.

Legend:
Human NPY4/PP1 receptor = Human NPY4/PP1 receptor (Homo sapiens, UniProt P50391); assay: Human NPY4/PP1 Receptor Binding Assay; settings: [125I]human PP; read-out: hNPY4 IC50
Human NPY2 receptor = biological target: T1, Human NPY2 receptor (Homo sapiens, UniProt P49146); assay: Human NPY2 Receptor Binding Assay; settings: [125I]PYY; read-out: hPPY2 IC50
T1 sequence (P49146 1-381): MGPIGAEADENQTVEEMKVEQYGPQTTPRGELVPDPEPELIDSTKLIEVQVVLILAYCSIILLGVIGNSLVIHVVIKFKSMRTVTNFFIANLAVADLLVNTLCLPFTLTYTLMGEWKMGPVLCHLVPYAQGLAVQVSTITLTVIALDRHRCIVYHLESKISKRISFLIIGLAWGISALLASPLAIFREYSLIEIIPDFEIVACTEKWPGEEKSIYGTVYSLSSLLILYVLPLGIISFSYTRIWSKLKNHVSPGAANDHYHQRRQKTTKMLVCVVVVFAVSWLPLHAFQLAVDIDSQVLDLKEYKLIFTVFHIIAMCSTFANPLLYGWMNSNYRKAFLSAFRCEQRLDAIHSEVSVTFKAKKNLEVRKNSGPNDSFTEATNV
Procedure: Binding assays were performed on GF/C Millipore 96-well plates pretreated with 0.02% polyethylenimine. The binding buffer for rat Y2 binding is Krebs-Ringer bicarbonate (pH 7.4) containing 0.01% BSA and 0.005% bacitracin. Samples consist of membrane protein, 25 pM [125I]PYY and drug dilution. Nonspecific binding is defined by 1 μpM NPY.
After a 2 hour incubation at room temperature with constant mixing, the samples are aspirated on a vacuum manifold, and rinsed with ice-cold binding buffer. The amount of radioactivity in each well is quantitated with either gamma counting or liquid scintillation.

Rat NPY5 Receptor = biological target: T2, Rat NPY5 Receptor (Rattus norvegicus, UniProt Q63634); assay: Rat NPY5 Receptor Binding Assay; settings: [125I]PYY; read-out: rNPY5 IC50
T2 sequence (Q63634 1-445): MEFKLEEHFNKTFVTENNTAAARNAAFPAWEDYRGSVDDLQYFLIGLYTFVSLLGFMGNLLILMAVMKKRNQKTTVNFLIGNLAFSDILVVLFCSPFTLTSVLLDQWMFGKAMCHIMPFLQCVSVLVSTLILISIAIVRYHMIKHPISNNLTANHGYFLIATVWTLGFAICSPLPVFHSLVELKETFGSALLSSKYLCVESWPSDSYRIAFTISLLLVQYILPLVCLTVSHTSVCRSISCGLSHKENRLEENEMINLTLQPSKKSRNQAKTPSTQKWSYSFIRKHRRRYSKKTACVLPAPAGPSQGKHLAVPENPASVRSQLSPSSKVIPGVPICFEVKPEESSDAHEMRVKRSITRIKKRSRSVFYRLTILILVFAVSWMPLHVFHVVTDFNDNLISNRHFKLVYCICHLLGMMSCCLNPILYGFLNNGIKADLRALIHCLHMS

Human NPY5 Receptor = biological target: T3, Human NPY5 Receptor (Homo sapiens, UniProt Q15761); assay: Human NPY5 Receptor Binding Assay; settings: [125I]PYY; read-out: hNPY5 IC50
T3 sequence (Q15761 1-445): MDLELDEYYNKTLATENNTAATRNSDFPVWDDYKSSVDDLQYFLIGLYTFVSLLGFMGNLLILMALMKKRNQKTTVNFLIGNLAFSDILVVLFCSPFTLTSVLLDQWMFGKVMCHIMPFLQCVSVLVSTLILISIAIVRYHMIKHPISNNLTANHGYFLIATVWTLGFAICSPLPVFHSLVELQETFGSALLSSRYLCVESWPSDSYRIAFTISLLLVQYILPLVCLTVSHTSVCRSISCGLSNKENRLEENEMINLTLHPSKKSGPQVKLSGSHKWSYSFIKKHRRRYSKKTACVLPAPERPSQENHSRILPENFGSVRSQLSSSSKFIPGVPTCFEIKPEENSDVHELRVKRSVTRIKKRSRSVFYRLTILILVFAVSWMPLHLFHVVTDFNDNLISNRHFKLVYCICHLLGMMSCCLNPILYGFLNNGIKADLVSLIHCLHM

Human NPY1 Receptor = biological target: T4, Human NPY1 Receptor (Homo sapiens, UniProt P25929); assay: Human NPY1 Receptor Binding Assay; settings: SK-N-MC cells, [125I]PYY; read-out: hNPY1 IC50
T4 sequence (P25929 1-384): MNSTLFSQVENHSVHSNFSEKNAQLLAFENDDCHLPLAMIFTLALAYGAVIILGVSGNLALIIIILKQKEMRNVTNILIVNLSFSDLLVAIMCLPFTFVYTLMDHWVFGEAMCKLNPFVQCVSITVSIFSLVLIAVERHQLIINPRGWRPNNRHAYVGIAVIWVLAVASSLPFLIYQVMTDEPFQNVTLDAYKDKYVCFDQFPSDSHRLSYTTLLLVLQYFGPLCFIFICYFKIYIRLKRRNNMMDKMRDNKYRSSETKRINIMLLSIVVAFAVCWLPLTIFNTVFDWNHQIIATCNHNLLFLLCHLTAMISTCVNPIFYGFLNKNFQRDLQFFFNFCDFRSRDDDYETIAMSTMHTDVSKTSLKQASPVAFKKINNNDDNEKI

Chain of Human NPY4/PP1 receptor (P50391 whole entry): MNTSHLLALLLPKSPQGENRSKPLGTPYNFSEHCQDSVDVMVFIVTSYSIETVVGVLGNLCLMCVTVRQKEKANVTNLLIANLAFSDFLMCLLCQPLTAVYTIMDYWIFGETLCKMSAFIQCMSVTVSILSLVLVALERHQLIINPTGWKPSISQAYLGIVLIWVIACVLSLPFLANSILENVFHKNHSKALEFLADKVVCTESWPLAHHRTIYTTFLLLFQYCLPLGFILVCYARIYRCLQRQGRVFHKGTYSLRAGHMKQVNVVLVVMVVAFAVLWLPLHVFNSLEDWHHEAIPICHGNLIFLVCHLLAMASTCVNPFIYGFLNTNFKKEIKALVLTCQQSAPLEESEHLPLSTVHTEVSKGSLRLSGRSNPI

Row | pIC50 (Human NPY4/PP1 receptor) | pIC50 (Human NPY2 receptor) | pIC50 (Rat NPY5 Receptor) | pIC50 (Human NPY5 Receptor) | pIC50 (Human NPY1 Receptor) | Compound
1 | < 5.30 | < 5.30 | < 6.00 | – | – | Cc1ccnc(SCC(=O)Nc2ccc(C3CCCCC3)cc2)n1 [Compound 5, N-(4-Cyclohexyl-phenyl)-2-(4-methyl-pyrimidin-2-ylsultanyl)-acetamide Hydrochloride]
2 | < 5.30 | – | < 5.00 | < 5.00 | < 5.30 | Cc1cc(-c2nnc(SCC(=O)Nc3ccccc3)n2C)no1 [Compound 150, 2-[4-Methyl-5-(5-methyl-isoxazol-3-yl)-4H-[1,2,4]triazol-3-ylsulfanyl]-N-phenyl-acetamide, reference compound]
3 | < 5.30 | – | < 5.00 | < 5.00 | < 5.30 | CC(C)c1ccc(NC(=O)CSc2nnc(CSc3cccs3)n2C)cc1 [Compound 153, reference compound]
4 | < 5.30 | – | < 5.00 | < 5.00 | < 5.30 | CCn1c(SCC(=O)Nc2cc(C)ccc2OC)nnc1C(F)(F)F [Compound 157, N-(2-Methoxy-5-methyl-phenyl)-2-(4-ethyl-5-trifluoromethyl-4H-[1,2,4]triazol-3-ylsulfanyl)-acetamide, reference compound]
5 | < 5.30 | – | < 5.00 | < 5.00 | < 5.30 | CC(C)c1ccc(NC(=O)CSc2nnc(Cc3ccsc3)n2C)cc1 [Compound 158, N-(4-isopropyl-phenyl)-2-(4-methyl-5-thiophen-3-ylmethyl-4H-[1,2,4]triazol-3-ylsulfanyl)-acetamide, reference compound]
6 | < 5.30 | – | < 5.00 | < 5.00 | < 5.30 | CSc1sc(-c2nnc(SCC(=O)Nc3ccc(Cl)cc3)n2C)c2c1C=CCC2 [Compound 159, N-(4-Chloro-phenyl)-2-[4-methyl-5-(3-methylsulfanyl-6,7-dihydro-benzo[c]thiophen-1-yl)-4H-[1,2,4]triazol-3-ylsulfanyl]-acetamide, reference compound]
7 | < 5.30 | – | < 5.00 | < 5.00 | < 5.30 | Cn1c(SCC(=O)Nc2ccc(Cl)cc2)nnc1-c1ncc(C(F)(F)F)cc1Cl [Compound 160, reference compound]
8 | < 5.30 | – | < 5.00 | < 5.00 | < 5.30 | COC(Cn1c(SCC(=O)Nc2ccc(Cl)cc2)nnc1-c1ccc(Cl)cc1)OC [Compound 161, N-(4-Chloro-phenyl)-2-[5-(4-chloro-phenyl)-4-(2,2-dimethoxy-ethyl)-4H-[1,2,4]triazol-3-ylsulfanyl]-ecetamide, reference compound]
9 | < 5.30 | – | < 5.00 | < 5.00 | < 5.30 | COC(Cn1c(SCC(=O)Nc2ccc(Cl)cc2)nnc1-c1ccccc1)OC [Compound 162, N-(4-Chloro-phenyl)-2-(4-(2,2-dimethoxy-ethyl)-5-phenyl-4H-[1,2,4]triazol-3-ylsulfanyl]-acetamide, reference compound]
10 | < 5.30 | – | < 5.00 | < 5.00 | < 5.30 | COC(Cn1c(SCC(=O)Nc2ccc(C(C)C)cc2)nnc1-c1ccccc1)OC [Compound 163, 2-[4-(2,2-Dimethoxy-ethyl)-5-phenyl-4H-[1,2,4]triazol-3-ylsulfanyl]-N-(4-isopmpyl-phenyl)-acetamide, reference compound]
11 | < 5.30 | – | 5.77 | 5.80 | < 5.30 | Cn1cnnc1SCC(=O)Nc1ccc(C(C)(C)C)cc1 [Compound 164, N-(4-tert-Butyl-phenyl)-2-(4-methyl-4H-[1,2,4]triazol-3-ylsulfanyl)-acetamide, reference compound]
12 | < 5.30 | – | < 5.00 | < 5.00 | < 5.30 | CC(C)c1ccc(NC(=O)CSc2nc3cc(C(F)(F)F)ccc3n2C(C)C)cc1 [Compound 165, N-(4-Isopropyl-phenyl)-2-(1-isopropyl-5-trifluoromethyl-1H-benzolmidazol-2-ylsulfanyl)-acetamide, reference compound]
13 | < 5.30 | – | < 5.00 | < 5.00 | < 5.30 | COC(Cn1c(SCC(=O)Nc2ccc(C(C)C)cc2)nnc1-c1ccc(Cl)cc1)OC [Compound 166, 2-[5-(4-Chloro-phenyl)-4-(2,2-dimethoxy-ethyl)-4H-[1,2,4]triazol-3-ylsulfanyl]-N-(4-isopropyl-phenyl)-acetamide, reference compound]
14 | < 5.30 | – | < 5.00 | < 5.00 | < 5.30 | Cn1c(CC2Sc3ccccc3NC2=O)nnc1SCC(=O)Nc1ccc(Cl)cc1 (centres unmarked) [Compound 167, reference compound]
15 | < 5.30 | – | < 5.00 | < 5.00 | < 5.30 | Cn1c(Cc2ccsc2)nnc1SCC(=O)Nc1ccc(Cl)cc1 [Compound 168, N-(4-Chloro-phenyl)-2-(4-methyl-5-thiophen-3-ylmethyl-4H-[1,2,4]triazol-3-ylsulfanyl)-acetamide, reference compound]
16 | < 5.30 | – | < 5.00 | < 5.00 | < 5.30 | Cc1cc(-c2nc(C)c(-c3nnc(SCC(=O)Nc4ccc(Cl)cc4)n3C)s2)no1 [Compound 169, reference compound]
17 | < 5.30 | – | < 5.00 | < 5.00 | < 5.30 | Cn1cnnc1SCC(=O)Nc1ccc(F)cc1 [Compound 170, N-(4-Fluoro-phenyl)-2-(4-methyl-4H-[1,2,4]triazol-3-ylsulfanyl)-acetamide, reference compound]
18 | < 5.30 | < 5.30 | – | < 5.00 | – | CCCCCCCCCCCc1nnc(SCC(=O)Nc2ccc(Cl)cc2)n1-c1ccccc1C(F)(F)F [Compound 178, N-(A-Chloro-phenyl)-2-[4-(2-trifluoromethyl-phenyl)-5-undecyl-4H-[1,2,4]triazol-3-ylsulfanyl]-acetamide, reference compound]
19 | < 5.30 | < 5.30 | – | < 5.00 | – | CCCCCCCCCCCc1nnc(SCC(=O)Nc2ccc(C(C)C)cc2)n1-c1ccccc1C(F)(F)F [Compound 179, reference compound]
20 | < 5.30 | < 5.30 | – | < 5.00 | – | CC(C)n1c(SCC(=O)Nc2ccc(Cl)cc2)nc2cc(C(F)(F)F)ccc21 [Compound 180, N-(4-Chloro-phenyl]-2-(1-isopropyl-5-trifluoromethy-1H-benzolmidazol-2-ylsulfanyl)-acetamide, reference compound]
21 | < 5.30 | < 5.30 | – | < 5.00 | – | CCCCCn1c(O)nnc1SCC(=O)Nc1ccc(Cl)cc1 [Compound 181, N-(4-Chloro-phenyl)-2-(5-hydroxy-4-pentyl-4H-[1,2,4]triazo-3-ylsulfanyl)-acetamide, reference compound]
22 | < 5.30 | < 5.30 | 5.92 | 5.89 | – | Cc1ccc(SCC(=O)Nc2ccc(C3CCCCC3)cc2)cc1 [Compound 183, reference compound]
